Key:
DNase I [1] = experiment: Colorimetric DNase I inhibition assay, ligated gold nanoparticle aggregates with linker oligonucleotide (Example 2); assay type: biochemical; settings: for t (releasing time; time required to hydrolyze 50% of the aggregates): inhibitor 1 μM, DNase I 15 units/ml, extinction at 520 nm, ligated aggregates, control 9.5 min
Protocol: A typical screening experiment was slated by adding the DNase I to solutions of the gold nanoparticle aggregates in the presence of one of the DNA binding molecules, amsacrine (AMSA), anthrquinone-2-carboxylic acid (AQ2A), 9-aminoacridine (9-AA), ellipticine (EIPT), daunorubicin (DNR), ethidium bromide (EB) and 4′,6-diamidedino-2-phenylindole (DAPI) (1 μM), respectively. The color changes of the solutions were monitored at 520 nm by UV-vis spectrometry over time (sample scan rate=2 min^−1). The inhibitors can decrease DNase I activity and increase the hydrolysis time and the corresponding time required for a color change in the solution. Thus, we could determine the relative activities of different endonuclease inhibitors by measuring the time required to hydrolyze 50% of the aggregates (t). […] The hydrolysis time is consistent with relative binding affinities of inhibitors to DNA by determining the melting temperature (Tm) of duplex DNA at 260 nm in the presence of each DNA-binding molecule.
High-throughput screening is widely used for the identification of hit compounds from combinatorial libraries. (See P. A. Johnston, P. A. Johnston, Drug Discovery Today, 7: 353 (2002); D. L. Boger, J. Deshamais, K. Capps, Angew. Chem. Int. Ed., 42: 4138 (2003); S. Wang, T. B. Sim, Y.-S. Kim, Y.-T. Chang, Cum Opin. Cham. Biol., 8: 371 (2004)). We have examined the application of the gold nanoparticle aggregates for high throughput screening of endonuclease inhibitors by visual inspection. […] Thus, we can determine potencies of inhibitor using color change as a function of time. […] The trend of potencies of inhibitors was determined to be DAPI>EB>DNR>9-AA, EIPT, and AQ2A>AMSA, which is consistent with the control experiments involving serial analysis of each inhibitors with nanoparticle-free duplex DNA.
Two separate types of DNA-AuNPs were prepared by functionalizing 13 nm gold nanoparticles with two different thiol-modified oligonucleotide strands, AuNP-3 and AuNP-4. AuNP-3 was functionalized with 3′-hydroxyl-modified and 5′-thiol-modified 15-mer oligonucleotides (DNA-3 sequence: 5′-SH-A10-CGTTAGGACTTACGC-OH-3′, SEQ ID NO:3). DNA-3 is complementary to one-half of the 30-mer linker oligonucleotide (DNA-linker oligonucleotide sequence: 5′ […]-3′, SEQ ID NO:5). AuNP-4 was functionalized with 3′-thiolated and 5′-phosphorylated 15-mer oligonucleotides (DNA-4: 5′-PO4^3−-TTATAACTATTCCTA-A10-SH-3′, SEQ ID NO:4) that are complementary to the other half of the linker-oligonucleotide. After combining the three components, AuNP-3 and AuNP-4 (each at 3 nM) as well as the linker-oligonucleotides (3 μM), in the presence of ligation buffer (50 mM Tris-HCl buffer pH 7.5, 5 mM MgCl2, […], 0.05 mg/ml BSA, T4 DNA Ligase 4.000 units/ml), the DNAs assemble to form a three-strand DNA hybridization complex. First the linker-oligonucleotide acts as templates to co-align the 3′-hydroxyl group of the DNA-3 and the 5′-phosphate group of the DNA-4. Then the T4 DNA Ligase catalyzes the formation of a phosphodiester bond between the 3′-hydroxyl and the 5′-phosphate groups of DNA-3 and DNA-4, covalently joining DNA-3 and DNA-4 to form a 30-mer oligonucleotide. This method yield stable 30-base-pair double stranded links between the AuNPs. Since the nanoparticles aggregate, a red-to-purple color change can be observed.
The prepared gold nanoparticle aggregate was washed (3 times) with DNase I buffer (10 mM sodium phosphate buffer pH 7.0, 0.25 mM MgCl2). The assay was initiated by adding DNase I (10-50 units/ml) and the hydrolysis kinetics were monitored by a UV-vis spectrum at the extinction of 520 nm with stirring at room temperature.

duplex DNA = experiment: Melting temperature of duplex DNA (without nanoparticles) in the presence of DNA binding molecule; settings: DNA duplex 2.0 μM, sodium phosphate buffer 10 mM pH 7.0, NaCl 100 mM, DNA binding molecule 5.0 μM, control 61.0
DNase I [2] = experiment: Colorimetric DNase I inhibition assay, hybridized gold nanoparticle aggregates without linker oligonucleotide (Example 1); assay type: biochemical; settings: inhibitor 1 μM, DNase I 15 units/ml, extinction at 520 nm, room temperature; control 6.8 min
Protocol: In addition to screening enzyme activity, one can easily use the assay to evaluate the efficiency of inhibitors of DNase I. In a typical screening experiment, DNase I (15 units/ml) was added to solutions of the DNA-linked gold nanoparticle aggregates in the presence of one of the following DNA binding molecules: amsacrine (AMSA), anthraquinone-2-carboxylic acid (AQ2A), 9-aminoacridine (9-AA), ellipticine (EIPT), daunorubicin (DNR), ethidium bromide (EB) and 4′,6-diamidedino-2-phenylindole (DAPI) (1 μM), respectively. These DNA binding molecules are known to inhibit DNase I. (See R. A. Ikeda, P. B. Dervan, J. Am. Chem. Soc., 104: 296 (1982); S. M. Forrow, M. Lee, R. L. Souhami, J. A. Hartley, Chem. Biol. Interact., 96: 125 (1995); P. G. Baraldi, A. Bovero, F. Fruttarolo, D. Preti, M. A. Tabrizi, M. G. Pavani, R. Romagnoli, Med. Res. Rev., 24: 475 (2004)). Extinction was monitored at 520 nm as a function of time (sample scan rate=5 min^−), and the color of the solution was followed with the naked eye. The time at which 50% of the aggregate is hydrolyzed (TH) can be used as a measure of inhibition (FIG. 6). The inhibitors decrease DNase I activity and increase the TH and, therefore, the corresponding time required for a color change in the solution. […] The trend is determined based on TH, which is consistent with the relative binding affinities of the inhibitors to DNA, as determined by measuring the melting temperature of the duplex DNA in the presence of each DNA-binding molecule (FIG. 6 and Table 1 below).
The relative binding affinities of the inhibitors to DNA are consistent with the hydrolysis time (TH) of the aggregates by DNase I in the presence of a specific inhibitor. TH is determined by measuring the extinction at 520 nm and determining when half of the particles composing the aggregates have been released.
AuNP-1 and AuNP-2 were functionalized with 3′-thiol-modified 30-mer oligonucleotides (AuNP-1, DNA-1 sequence: 5′-[…]-A10-SH-3′, SEQ ID NO: 1; AuNP-2, DNA-2 sequence: 5′-[…]-A10-SH-3′, SEQ ID NO:2) using previously reported methods. (See J. J. Storhoff, R. Elghanian, R. C. Mucic, C. A. Mirkin, R. L. Letsinger, J. Am. Chem. Soc., 120: 1959 (1998)). After combining 1 ml aliquots of the two probes, AuNP-1 and AuNP-2 (each at 3 nM), in hybridization buffer (50 mM Tris-HCl buffer pH 7.0, 2 mM MgCl2), the mixture was heated to 90° C. and held at this temperature for 10 minutes.
The pre-prepared gold nanoparticle aggregates were washed (3 times) with DNase I buffer (10 mM sodium phosphate buffer pH 7.0, 0.75 mM MgCl2). They were then resuspended in 1 ml of DNase I buffer. A 10 μL aliquot of each of the endonuclease inhibitors (0.1 mM) was then added to a 1 ml solution of the aggregates, respectively, and incubated for 10 minutes. The assay was initiated by adding DNase I, and the hydrolysis kinetics were monitored by UV-vis spectroscopy (Cary 5000, Varian). The solution was continuously stirred with a magnetic stir bar at room temperature to keep the aggregates suspended.

N=C(N)c1ccc(-c2cc3ccc(C(=N)N)cc3[nH]2)cc1 [DAPI, 4′,6-diamidedino-2-phenylindole]
t (releasing time; time required to hydrolyze 50% of the aggregates) (DNase I [1]): >1440 min
color change of aggregate solution by visual inspection after adding DNase I (FIG. 10) (DNase I [1]; visual inspection, purple to red as a function of reaction time, no or slow change indicates inhibition): remains light purple throughout the examination time
Tm (melting temperature of duplex DNA in the presence of endonuclease inhibitor) (duplex DNA; Table 1): 77.0 °C
Tm (melting temperature of duplex DNA in the presence of endonuclease inhibitor) (duplex DNA; Table 2, at 260 nm): 77.0 °C
TH (time at which 50% of the aggregate is hydrolyzed by DNase I) (DNase I [2]): 101.2 min

O=C(O)c1ccc2c(c1)C(=O)c1ccccc1C2=O [AQ2A, anthraquinone-2-carboxylic acid]
t (releasing time; time required to hydrolyze 50% of the aggregates) (DNase I [1]): 14.5 min
Tm (melting temperature of duplex DNA in the presence of endonuclease inhibitor) (duplex DNA; Table 1): 62.5 °C
Tm (melting temperature of duplex DNA in the presence of endonuclease inhibitor) (duplex DNA; Table 2, at 260 nm): 62.5 °C
TH (time at which 50% of the aggregate is hydrolyzed by DNase I) (DNase I [2]): 19.6 min

Cc1c2ccncc2c(C)c2c1[nH]c1ccccc12 [EIPT, ellipticine]
t (releasing time; time required to hydrolyze 50% of the aggregates) (DNase I [1]): 15.0 min
Tm (melting temperature of duplex DNA in the presence of endonuclease inhibitor) (duplex DNA; Table 1): 63.0 °C
Tm (melting temperature of duplex DNA in the presence of endonuclease inhibitor) (duplex DNA; Table 2, at 260 nm): 63.0 °C
TH (time at which 50% of the aggregate is hydrolyzed by DNase I) (DNase I [2]): 25.2 min

COc1cccc2c1C(=O)c1c(O)c3c(c(O)c1C2=O)C[C@@](O)(C(C)=O)C[C@@H]3O[C@H]1C[C@H](N)[C@H](O)[C@H](C)O1 [DNR, daunorubicin]
t (releasing time; time required to hydrolyze 50% of the aggregates) (DNase I [1]): 31.5 min
Tm (melting temperature of duplex DNA in the presence of endonuclease inhibitor) (duplex DNA; Table 1): 65.5 °C
Tm (melting temperature of duplex DNA in the presence of endonuclease inhibitor) (duplex DNA; Table 2, at 260 nm): 65.5 °C
TH (time at which 50% of the aggregate is hydrolyzed by DNase I) (DNase I [2]): 43.2 min

Nc1c2ccccc2nc2ccccc12 [9-AA, 9-aminoacridine]
t (releasing time; time required to hydrolyze 50% of the aggregates) (DNase I [1]): 16.0 min
Tm (melting temperature of duplex DNA in the presence of endonuclease inhibitor) (duplex DNA; Table 1): 62.5 °C
Tm (melting temperature of duplex DNA in the presence of endonuclease inhibitor) (duplex DNA; Table 2, at 260 nm): 62.5 °C
TH (time at which 50% of the aggregate is hydrolyzed by DNase I) (DNase I [2]): 24.6 min
